In experiment [1] the test system is acute myocardial infarction in the mouse (male ICR mice, coronary artery ligation). As to the kind of experiment: Cardiac remodeling after coronary artery ligation in ICR mice (Example 3). It counts as in vivo. The method, then:
Male ICR mice underwent coronary artery ligation or sham surgery (N=8-10 per group). A selective A2B antagonist, Compound A 4 mg/kg in a formulated dosing suspension, every 12 hours i.p., was given starting immediately after the surgery and continued for 14 days. Transthoracic echocardiography was performed prior to surgery and then 7, 14 and 28 days later. A subgroup of mice was sacrificed 72 hours after surgery and the activity of caspase-1, a key proinflammatory mediator, was measured in the cardiac tissue.

Experiment [2] deals with CD1 mice with experimental AMI (permanent coronary artery ligation). Kind of experiment: Circulating levels of cytokines and soluble adhesion molecules at day 28 (Luminex, Example 4). The format is in vivo, mouse. To be noted: day 28 after surgery, vs vehicle. The method, then: Adult out-bred male CD1 mice (8-12 weeks of age) were supplied by Harlan Sprague Dawley (Indianapolis, Ind.). The experiments were conducted under the guidelines of laboratory animals for biomedical research published by National Institutes of Health (No. 85-23, revised 1996). The study protocol was approved by the Virginia Commonwealth University Institutional Animal Care and Use Committee. Experimental AMI was induced by permanent coronary artery ligation in order to induce a large non-reperfused infarct involving approximately 30% of the left ventricle and leading to an ischemic dilated cardiomyopathy (Mezzaroma et al. Proc Natl Acad Sci 2011—in press and Abbate et al. Circulation 2008; 117:2670-83). Briefly, mice were orotracheally intubated under anesthesia (pentobarbital 50 to 70 mg/kg), placed in the right lateral decubitus position, then subjected to a left thoracotomy, pericardiectomy, and ligation of the proximal left coronary artery. The chest was closed and the animals were allowed to recover. The mice surviving surgery were randomly assigned to the different groups of treatment (N=6-15 per group). Sham operations were performed wherein animals underwent the same surgical procedure without coronary artery ligation (N=4-8 per group).
The A2B AdoR antagonist, Compound A, was obtained from Gilead Sciences, Foster City, Calif. Mice were randomly assigned to treatment with Compound A (4 mg/kg) or matching dose of vehicle administered intraperitoneally (final volume 0.13 mL) every 12 hours for 14 days starting immediately after coronary artery ligation surgery. An additional group of mice received a lower dose of Compound A (2 mg/kg) to explore a dose-response relationship. Two additional groups of mice received Compound A (4 mg/kg) starting 1 hour after surgery to simulate a clinical scenario of treatment delay. […] To simulate a clinically relevant scenario in which drug treatment may occur with some delay after AMI, this example compared treatment with Compound A without delay with groups in which the A2B AdoR antagonist was given with 1 hour of delay.
The plasma concentrations of IL-1β and […], Tumor Necrosis Factor-α (TNF-α) and soluble adhesion molecules (E-selectin, Intercellular adhesion molecule-1 [ICAM-1] and vascular cellular adhesion molecule [VCAM]), that are induced by IL-1β, were determined at day 28 after surgery using Luminex kits obtained from Millipore (Billerica, Mass.) according to the manufacturer's instructions. A blood sample was obtained via a direct cardiac puncture immediately prior to killing the animals.

Experiment [3] deals with ob/ob model mice. As to the kind of experiment: Inflammatory biomarker expression in ob/ob mice after 28-day dosing (Example 5). The format is in vivo, mouse. Here is the method:
The A2B antagonist, Compound A (3 mg/kg/day or 10 mg/kg/day), was given to 6 weeks old ob/ob model mice for 28 days. At the end of the 28-day dosing, expression of a number of inflammatory biomarkers, MCP-1, IL-1b, IL-2 and IL-6, were measured in these mice as compared to control (vehicle).

Experiment [4] has as its system rats with MI (25 minutes coronary occlusion followed by reperfusion). As to the kind of experiment: Rat model of post-MI remodeling: serial echocardiograms (Example 6). The format is in vivo. The method, then: (§1) The effects of Compound A in a rat model of post-MI remodeling and VT were determined. MI was caused by 25 minutes occlusion at the left anterior descending coronary ligation followed by reperfusion. One week later, rats were administered either vehicle or Compound A (100 mg/kg) once daily by oral gavage. Serial echocardiograms (ECHOs) to measure LV ejection fraction (LVEF), stroke volume and LV end systolic volume (LVESV) were obtained at baseline, 1 week and 5 week post-MI. Electrophysiological studies, optical mapping, histology and biomarker analysis were conducted at 5 week post-MI.

Experiment [5] has the same test system. As to the kind of experiment: VT inducibility in rat model of post-MI remodeling (Example 6). The format is in vivo. To be noted: 5 weeks post-MI; total N 11. Here is the method:
as §1
Ventricular tachycardia (VT) is a common cause of mortality in post-MI patients, even with current coronary revascularization treatment. In this rat model of post-MI remodeling, VT was consistently inducible in more than half of the animals. Thus, the effect of Compound A in VT inducibility was determined at 5 weeks post-MI.

[6] abbreviates: echocardiography, 4 mg/kg i.p. every 12 hours for 14 days, vs vehicle.
[7] abbreviates: 3 mg/kg/day or 10 mg/kg/day for 28 days, vs vehicle.

The record followed here is patent US20120258974A1, “USE OF A2B ADENOSINE RECEPTOR ANTAGONISTS FOR TREATING HEART FAILURE AND ARRHYTHMIA IN POST-MYOCARDIAL INFARCTION PATIENTS” (GILEAD SCIENCES, INC., priority 2011, published 2012).

SMILES strings stand for the structures.

For `CCCn1c(=O)c2[nH]c(-c3cnn(Cc4cccc(C(F)(F)F)c4)c3)nc2n(CC)c1=O` [Compound A, 3-ethyl-1-propyl-8-(1-(3-(trifluoromethyl)benzyl)-1H-pyrazol-4-yl)-1H-purine-2,6(3H,7H)-dione], in experiment [1] (4 mg/kg i.p. every 12 hours for 14 days, vehicle 42%), the “mice that died during the 4 weeks post-surgery” value is reported as 25%. The “caspase-1 activity in the cardiac tissue” value in experiment [1] (72 hours after surgery, 4 mg/kg i.p. every 12 hours, vs vehicle) is given as “significantly reduced”. For the same molecule, in experiment [1] (setting [6]), the LV ejection fraction result is on record as “increased”, the end-diastolic diameter result was “significantly reduced” and the myocardial performance index entry is reported as “significantly reduced”. For the same molecule, in experiment [2], the E-selectin plasma level entry was “significantly reduced”, the ICAM-1 plasma level entry is recorded as “significantly reduced”, the IL-6 plasma level result is given as “significantly reduced” and the TNF-α plasma level result is on record as “significantly reduced”. For the same molecule, in experiment [2], the VCAM plasma level result is “significantly reduced”. In experiment [3] (setting [7]), the “expression of IL-1b” value was “went down”, the “expression of IL-2” value is given as “went down”, the “expression of IL-6” value is “went down” and the “expression of MCP-1” value was “went down”. In experiment [3] (10 mg/kg/day group, 28 days), the “reduction of IL-1b expression” value was “statistically significant” and the “reduction of MCP-1 expression” value is given as “statistically significant”. The “increase in LVESV” value in experiment [4] (100 mg/kg once daily oral gavage from 1 week post-MI) is recorded as “significantly reduced”. In experiment [4] (1 week post-MI (start of dosing), Compound A group), this molecule returned an LVEF of 53.1±3.2%. Besides, the LVEF in experiment [4] (5 weeks post-MI, 100 mg/kg once daily oral gavage from 1 week post-MI, vehicle 40.7±2.2) stood at 55.6±2.6%. Moreover, in experiment [5], the “No VT (number of animals)” value is on record as 10 and the “VT (number of animals)” value worked out at 1.
